Test results from US7279497B2, “Benzopyran derivatives substituted with secondary amines including imidazole, their preparation and pharmaceutical compositions containing them” (Korea Research Institute of Chemical Technology, priority 2002, dated 2007).

How the values were obtained:
SPF SD rats = conditions: rat, in vivo, po;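 also: Six-week-old animals, two per group, followed across an observation period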
[1] = test system: HUVECs (Human umbilical vein endothelial cells); assay: Inhibitory effects on HUVEC tube formation; format: cell-based; conditions: for Tube formation: 50 μM;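 as to tube formation: from minus no inhibition up to plus-plus-plus complete inhibition versus vehicle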
Procedure: The Inhibitory effects of the compounds of the formula 1 on angiogenesis were meassured by the vascular tube formation assay of HUVECs (Human umbilical vein endothelial cells), which is one of the major angiogenic steps.
HUVECs were isolated from human umbilical vein, and cultured. HUVECs within passage 5 from confluent cultures were detached, and plated onto a layer of a bFGF (basic fibroblast growth factor)-reduced and polymerized Matrigel. Matrigel cultures were incubated with or without the compounds of formula 1, and the changes of cell morphology were captured through a phase contrast microscope and photographed.

Compound	clinical symptoms, body weight and mortality (SPF SD rats)	Tube formation [1]	inhibitory effect on HUVEC tube formation ([1]; 50 uM)
COC(OC)[C@]1(C)Oc2ccc([N+](=O)[O-])cc2[C@H](N(Cc2ncc[nH]2)c2ccc(Br)cc2)[C@H]1O [Example 13, (2R,3R,4S)-3,4-dihydro-2-dimethoxymethyl-3-hydroxy-2-methyl-6-nitro-4-[N-(4-bromophenyl)-N-(1H-imidazol-2-ylmethyl)amino]-2H-1-benzopyran]	no significant changes	+	
COC(OC)[C@@]1(C)Oc2ccc(N)cc2[C@@H](N(Cc2ncc[nH]2)c2ccccc2C(C)C)[C@@H]1O [Example 34, (2S,3S,4R)-6-amino-3,4-dihydro-2-dimethoxymethyl-3-hydroxy-2-methyl-4-[N-(2-isopropylphenyl)-N-(1H-imidazol-2-ylmethyl)amino]-2H-1-benzopyran]	no significant changes		
COc1ccccc1N(Cc1ncc[nH]1)[C@H]1c2cc([N+](=O)[O-])ccc2O[C@@](C)(C(OC)OC)[C@@H]1O [Example 18, (2R,3R,4S)-3,4-dihydro-2-dimethoxymethyl-3-hydroxy-2-methyl-6-nitro-4-[N-(2-methoxyphenyl)-N-(1H-imidazol-2-ylmethyl)amino]-2H-1-benzopyran]	no significant changes		
COC(OC)[C@@]1(C)Oc2ccc([N+](=O)[O-])cc2[C@@H](N(Cc2ncc[nH]2)c2ccccc2C(C)C)[C@@H]1O [Example 10, (2S,3S,4R)-3,4-dihydro-2-dimethoxymethyl-3-hydroxy-2-methyl-6-nitro-4-[N-(2-isopropylphenyl)-N-(1H-imidazol-2-ylmethyl)amino]-2H-1-benzopyran]	no significant changes	++	strongly inhibited
COC(OC)[C@@]1(C)Oc2ccc([N+](=O)[O-])cc2[C@@H](N(Cc2ncc[nH]2)c2ccc(C)cc2C)[C@@H]1O [Example 9, (2S,3S,4R)-3,4-dihydro-2-dimethoxymethyl-3-hydroxy-2-methyl-6-nitro-4-[N-(2,4-dimethylphenyl)-N-(1H-imidazol-2-ylmethyl)amino]-2H-1-benzopyran]	no significant changes	+	
COc1ccccc1N(Cc1ncc[nH]1)[C@@H]1c2cc(N)ccc2O[C@](C)(C(OC)OC)[C@H]1O [Example 31, (2S,3S,4R)-6-amino-3,4-dihydro-2-dimethoxymethyl-3-hydroxy-2-methyl-4-[N-(2-methoxyphenyl)-N-(1H-imidazol-2-ylmethyl)amino]-2H-1-benzopyran]	no significant changes		
COC(OC)[C@@]1(C)Oc2ccc([N+](=O)[O-])cc2[C@@H](N(Cc2ncc[nH]2)c2ccc(Br)cc2)[C@@H]1O [Example 8, (2S,3S,4R)-3,4-dihydro-2-dimethoxymethyl-3-hydroxy-2-methyl-6-nitro-4-[N-(4-bromophenyl)-N-(1H-imidazol-2-ylmethyl)amino]-2H-1-benzopyran]	no significant changes	+	
COC(OC)[C@]1(C)Oc2ccc(N)cc2[C@H](N(Cc2ncc[nH]2)c2ccc(OC(F)(F)F)cc2)[C@H]1O [Example 26, (2R,3R,4S)-6-amino-3,4-dihydro-2-dimethoxymethyl-3-hydroxy-2-methyl-4-[N-(4-trifluoromethoxyphenyl)-N-(1H-imidazol-2-ylmethyl)amino]-2H-1-benzopyran]	no significant changes	+	
COc1ccc(N(Cc2ncc[nH]2)[C@@H]2c3cc(N)ccc3O[C@](C)(C(OC)OC)[C@H]2O)cc1 [Example 32, (2S,3S,4R)-6-amino-3,4-dihydro-2-dimethoxymethyl-3-hydroxy-2-methyl-4-[N-(4-methoxyphenyl)-N-(1H-imidazol-2-ylmethyl)amino]-2H-1-benzopyran]	no significant changes		
COC(OC)[C@@]1(C)Oc2ccc(N)cc2[C@@H](N(Cc2ncc[nH]2)c2cccc(C)c2C)[C@@H]1O [Example 30, (2S,3S,4R)-6-amino-3,4-dihydro-2-dimethoxymethyl-3-hydroxy-2-methyl-4-[N-(2,3-dimethylphenyl)-N-(1H-imidazol-2-ylmethyl)amino]-2H-1-benzopyran]	no significant changes		
COC(OC)[C@]1(C)Oc2ccc([N+](=O)[O-])cc2[C@@H](N(Cc2ncc[nH]2)c2ccc(Cl)cc2)[C@@H]1O [Example 4, (2R,3S,4R)-3,4-dihydro-2-dimethoxymethyl-3-hydroxy-2-methyl-6-nitro-4-[N-(4-chlorophenyl)-N-(1H-imidazol-2-ylmethyl)amino]-2H-1-benzopyran]	no significant changes	+	
COC(OC)[C@@]1(C)Oc2ccc([N+](=O)[O-])cc2[C@@H](N(Cc2ncc[nH]2)c2ccc(OC(F)(F)F)cc2)[C@@H]1O [Example 7, (2S,3S,4R)-3,4-dihydro-2-dimethoxymethyl-3-hydroxy-2-methyl-6-nitro-4-[N-(4-trifluoromethoxyphenyl)-N-(1H-imidazol-2-ylmethyl)amino]-2H-1-benzopyran]	no significant changes	+	
COC(OC)[C@]1(C)Oc2ccc([N+](=O)[O-])cc2[C@H](N(Cc2ncc[nH]2)c2cccc(Cl)c2)[C@H]1O [Example 19, (2R,3R,4S)-3,4-dihydro-2-dimethoxymethyl-3-hydroxy-2-methyl-6-nitro-4-[N-(3-chlorophenyl)-N-(1H-imidazol-2-ylmethyl)amino]-2H-1-benzopyran]	no significant changes		
COC(OC)[C@@]1(C)Oc2ccc(N)cc2[C@@H](N(Cc2ncc[nH]2)c2ccc(Br)cc2)[C@@H]1O [Example 36, (2S,3S,4R)-6-amino-3,4-dihydro-2-dimethoxymethyl-3-hydroxy-2-methyl-4-[N-(4-bromophenyl)-N-(1H-imidazol-2-ylmethyl)amino]-2H-1-benzopyran]	no significant changes		
COc1ccccc1N(Cc1ncc[nH]1)[C@@H]1c2cc([N+](=O)[O-])ccc2O[C@](C)(C(OC)OC)[C@H]1O [Example 16, (2S,3S,4R)-3,4-dihydro-2-dimethoxymethyl-3-hydroxy-2-methyl-6-nitro-4-[N-(2-methoxyphenyl)-N-(1H-imidazol-2-ylmethyl)amino]-2H-1-benzopyran]	no significant changes		
COC(OC)[C@@]1(C)Oc2ccc(N)cc2[C@@H](N(Cc2ncc[nH]2)c2ccc(F)cc2)[C@@H]1O [Example 37, (2S,3S,4R)-6-amino-3,4-dihydro-2-dimethoxymethyl-3-hydroxy-2-methyl-4-[N-(4-fluorophenyl)-N-(1H-imidazol-2-ylmethyl)amino]-2H-1-benzopyran]	no significant changes		
COC(OC)[C@@]1(C)Oc2ccc(N)cc2[C@@H](N(Cc2ncc[nH]2)c2ccc(OC(F)(F)F)cc2)[C@@H]1O [Example 35, (2S,3S,4R)-6-amino-3,4-dihydro-2-dimethoxymethyl-3-hydroxy-2-methyl-4-[N-(4-trifluoromethoxyphenyl)-N-(1H-imidazol-2-ylmethyl)amino]-2H-1-benzopyran]	no significant changes		
COC(OC)[C@]1(C)Oc2ccc([N+](=O)[O-])cc2[C@H](N(Cc2ncc[nH]2)c2ccc(OC(F)(F)F)cc2)[C@H]1O [Example 21, (2R,3R,4S)-3,4-dihydro-2-dimethoxymethyl-3-hydroxy-2-methyl-6-nitro-4-[N-(4-trifluoromethoxyphenyl)-N-(1H-imidazol-2-ylmethyl)amino]-2H-1-benzopyran]	no significant changes		
COC(OC)[C@@]1(C)Oc2ccc([N+](=O)[O-])cc2[C@@H](N(Cc2ncc[nH]2)c2cccc(C)c2C)[C@@H]1O [Example 11, (2S,3S,4R)-3,4-dihydro-2-dimethoxymethyl-3-hydroxy-2-methyl-6-nitro-4-[N-(2,3-dimethylphenyl)-N-(1H-imidazol-2-ylmethyl)amino]-2H-1-benzopyran]	no significant changes		
COC(OC)[C@@]1(C)Oc2ccc(N)cc2[C@@H](N(Cc2ncc[nH]2)c2ccc(C)cc2C)[C@@H]1O [Example 33, (2S,3S,4R)-6-amino-3,4-dihydro-2-dimethoxymethyl-3-hydroxy-2-methyl-4-[N-(2,4-dimethylphenyl)-N-(1H-imidazol-2-ylmethyl)amino]-2H-1-benzopyran]	no significant changes		
COC(OC)[C@@]1(C)Oc2ccc([N+](=O)[O-])cc2[C@@H](N(Cc2ncc[nH]2)c2cccc(Cl)c2)[C@@H]1O [Example 20, (2S,3S,4R)-3,4-dihydro-2-dimethoxymethyl-3-hydroxy-2-methyl-6-nitro-4-[N-(3-chlorophenyl)-N-(1H-imidazol-2-ylmethyl)amino]-2H-1-benzopyran]	no significant changes		
COC(OC)[C@]1(C)Oc2ccc([N+](=O)[O-])cc2[C@H](N(Cc2ncc[nH]2)c2ccccc2C(C)C)[C@H]1O [Example 17, (2R,3R,4S)-3,4-dihydro-2-dimethoxymethyl-3-hydroxy-2-methyl-6-nitro-4-[N-(2-isopropylphenyl)-N-(1H-imidazol-2-ylmethyl)amino]-2H-1-benzopyran]	no significant changes		
COC(OC)[C@@]1(C)Oc2ccc([N+](=O)[O-])cc2[C@@H](N(Cc2ncc[nH]2)c2ccc(F)cc2)[C@@H]1O [Example 15, (2S,3S,4R)-3,4-dihydro-2-dimethoxymethyl-3-hydroxy-2-methyl-6-nitro-4-[N-(4-fluorophenyl)-N-(1H-imidazol-2-ylmethyl)amino]-2H-1-benzopyran]	no significant changes		
